Data from the supplement of paper PMC10307832.

Columns and labels:
Assay in all cases: relative viability (nuclei count vs DMSO), 5 days (fraction); higher = more cells survive
[1] = compound: CNC(=O)c1cc(Oc2ccc(NC(=O)Nc3ccc(Cl)c(C(F)(F)F)c3)cc2)ccn1 [Sorafenib]
Outline: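 After an overnight hold at 37 °C, lung cancer cell lines in 1536-well plates were pinned with five library-drug doses (not always all listed), each √10 from the next, on vehicle-anchored plates. The cells stayed 5 days without fresh medium, then a one-step fix, permeabilisation and Hoechst stain preceded 4× imaging and MetaXpress nuclear counts. A plate passed only with control CV under 25% and at least one doubling. Viability is the median, over plates, of treated-well nuclei relative to vehicle-well nuclei.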

[2] = compound: CNC(=O)c1cc(Oc2ccc(NC(=O)Nc3ccc(Cl)c(C(F)(F)F)c3)cc2)ccn1 [Sorafenib] + N=C(N)NC(=N)NCCc1ccccc1 [Phenformin] (partner 250 µM)
Outline: (§1)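 Relative viability was taken as the ratio of nuclei in treated wells to nuclei in vehicle wells. Lung cancer cell lines in 1536-well plates received compounds by pin tool one day after seeding, either one drug alone or a fixed anchor-drug dose plus five library-drug doses (not always all listed) in √10 steps. Nuclei were counted on 4× images after 5 days of treatment, and values are medians of duplicate plates.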

[3] = compound: CNC(=O)c1cc(Oc2ccc(NC(=O)Nc3ccc(Cl)c(C(F)(F)F)c3)cc2)ccn1 [Sorafenib] + COc1cc2c(Oc3ccc(NC(=O)C4(C(=O)Nc5ccc(F)cc5)CC4)cc3F)ccnc2cc1OCCCN1CCOCC1 [Foretinib] (partner 0.25 µM)
Outline: as §1

[4] = compound: CNC(=O)c1cc(Oc2ccc(NC(=O)Nc3ccc(Cl)c(C(F)(F)F)c3)cc2)ccn1 [Sorafenib] + CCNC(=O)c1noc(-c2cc(C(C)C)c(O)cc2O)c1-c1ccc(CN2CCOCC2)cc1 [Luminespib] (partner 0.01 µM)
Outline: as §1

[5] = compound: CNC(=O)c1cc(Oc2ccc(NC(=O)Nc3ccc(Cl)c(C(F)(F)F)c3)cc2)ccn1 [Sorafenib] + Cc1cc(Nc2cc(N3CCN(C)CC3)nc(Sc3ccc(NC(=O)C4CC4)cc3)n2)n[nH]1 [Tozasertib] (partner 0.1 µM)
Outline: as §1

[6] = compound: CNC(=O)c1cc(Oc2ccc(NC(=O)Nc3ccc(Cl)c(C(F)(F)F)c3)cc2)ccn1 [Sorafenib] + Cc1nc(Nc2ncc(C(=O)Nc3c(C)cccc3Cl)s2)cc(N2CCN(CCO)CC2)n1 [Dasatinib] (partner 0.075 µM)
Outline: as §1

[7] = compound: CNC(=O)c1cc(Oc2ccc(NC(=O)Nc3ccc(Cl)c(C(F)(F)F)c3)cc2)ccn1 [Sorafenib] + COc1cccc2cc(-c3nc([C@H]4CC[C@H](C(=O)O)CC4)n4ncnc(N)c34)[nH]c12 [OSI-027] (partner 0.5 µM)
Outline: as §1

[8] = compound: CNC(=O)c1cc(Oc2ccc(NC(=O)Nc3ccc(Cl)c(C(F)(F)F)c3)cc2)ccn1 [Sorafenib] + Cc1nc(NC(=O)N2CCC[C@H]2C(N)=O)sc1-c1ccnc(C(C)(C)C(F)(F)F)c1 [Alpelisib] (partner 2 µM)
Outline: as §1

[9] = compound: CNC(=O)c1cc(Oc2ccc(NC(=O)Nc3ccc(Cl)c(C(F)(F)F)c3)cc2)ccn1 [Sorafenib] + C[C@@H](Oc1cc(-c2cnn(C3CCNCC3)c2)cnc1N)c1c(Cl)ccc(F)c1Cl [Crizotinib] (partner 1 µM)
Outline: as §1

[10] = compound: CNC(=O)c1cc(Oc2ccc(NC(=O)Nc3ccc(Cl)c(C(F)(F)F)c3)cc2)ccn1 [Sorafenib] + CC(C)C[C@H](NC(=O)[C@H](Cc1ccccc1)NC(=O)c1cnccn1)B(O)O [Bortezomib] (partner 0.002 µM)
Outline: as §1

[11] = compound: CNC(=O)c1cc(Oc2ccc(NC(=O)Nc3ccc(Cl)c(C(F)(F)F)c3)cc2)ccn1 [Sorafenib] + CS(=O)(=O)CCNCc1ccc(-c2ccc3ncnc(Nc4ccc(OCc5cccc(F)c5)c(Cl)c4)c3c2)o1 [Lapatinib] (partner 2 µM)
Outline: as §1

[12] = compound: CNC(=O)c1cc(Oc2ccc(NC(=O)Nc3ccc(Cl)c(C(F)(F)F)c3)cc2)ccn1 [Sorafenib] + O=C(c1cc(Cc2n[nH]c(=O)c3ccccc23)ccc1F)N1CCN(C(=O)C2CC2)CC1 [Olaparib] (partner 8 µM)
Outline: as §1

[13] = compound: CNC(=O)c1cc(Oc2ccc(NC(=O)Nc3ccc(Cl)c(C(F)(F)F)c3)cc2)ccn1 [Sorafenib] + C[C@]1(O)C[C@@H](c2nc(-c3ccc4ccc(-c5ccccc5)nc4c3)c3c(N)nccn32)C1 [Linsitinib] (partner 1 µM)
Outline: as §1

[14] = compound: CNC(=O)c1cc(Oc2ccc(NC(=O)Nc3ccc(Cl)c(C(F)(F)F)c3)cc2)ccn1 [Sorafenib] + CC1(C)CCC(c2ccc(Cl)cc2)=C(CN2CCN(c3ccc(C(=O)NS(=O)(=O)c4ccc(N[C@H](CCN5CCOCC5)CSc5ccccc5)c(S(=O)(=O)C(F)(F)F)c4)cc3)CC2)C1 [Navitoclax] (partner 0.5 µM)
Outline: as §1

[15] = compound: CNC(=O)c1cc(Oc2ccc(NC(=O)Nc3ccc(Cl)c(C(F)(F)F)c3)cc2)ccn1 [Sorafenib] + CS(=O)(=O)N1CCN(Cc2cc3nc(-c4cccc5[nH]ncc45)nc(N4CCOCC4)c3s2)CC1 [Pictilisib] (partner 1 µM)
Outline: as §1

[16] = compound: CNC(=O)c1cc(Oc2ccc(NC(=O)Nc3ccc(Cl)c(C(F)(F)F)c3)cc2)ccn1 [Sorafenib] + Nc1ncn([C@H]2C[C@H](O)[C@@H](CO)O2)c(=O)n1 [Decitabine] (partner 2 µM)
Outline: as §1

NCI-H1623
relative viability ([1]; 0.08 µM): 0.977 | relative viability ([1]; 0.253 µM): 0.898 | relative viability ([1]; 2.53 µM): 1.06 | relative viability ([1]; 8 µM): 0.945 | relative viability ([2]; first compound 0.08 µM): 0.651 | relative viability ([2]; first compound 0.253 µM): 0.562 | relative viability ([2]; first compound 2.53 µM): 0.66 | relative viability ([2]; first compound 8 µM): 0.521 | relative viability ([3]; first compound 0.08 µM): 1.06 | relative viability ([3]; first compound 0.253 µM): 0.852 | relative viability ([3]; first compound 2.53 µM): 0.975 | relative viability ([3]; first compound 8 µM): 0.776 | relative viability ([4]; first compound 0.08 µM): 0.544 | relative viability ([4]; first compound 0.253 µM): 0.366 | relative viability ([4]; first compound 2.53 µM): 0.611 | relative viability ([4]; first compound 8 µM): 0.342 | relative viability ([5]; first compound 0.08 µM): 0.431 | relative viability ([5]; first compound 0.253 µM): 0.397 | relative viability ([5]; first compound 2.53 µM): 0.476 | relative viability ([5]; first compound 8 µM): 0.411 | relative viability ([6]; first compound 0.08 µM): 0.537 | relative viability ([6]; first compound 0.253 µM): 0.552 | relative viability ([6]; first compound 2.53 µM): 0.604 | relative viability ([6]; first compound 8 µM): 0.429 | relative viability ([7]; first compound 0.08 µM): 0.414 | relative viability ([7]; first compound 0.253 µM): 0.411 | relative viability ([7]; first compound 2.53 µM): 0.5 | relative viability ([7]; first compound 8 µM): 0.37

NCI-H1299
relative viability ([1]; 0.08 µM): 1.02 | relative viability ([1]; 0.253 µM): 0.963 | relative viability ([1]; 2.53 µM): 0.957 | relative viability ([1]; 8 µM): 0.922 | relative viability ([8]; first compound 0.08 µM): 1.06 | relative viability ([8]; first compound 0.253 µM): 0.982 | relative viability ([8]; first compound 2.53 µM): 0.962 | relative viability ([8]; first compound 8 µM): 0.877 | relative viability ([9]; first compound 0.08 µM): 0.9 | relative viability ([9]; first compound 0.253 µM): 0.859 | relative viability ([9]; first compound 2.53 µM): 0.907 | relative viability ([9]; first compound 8 µM): 0.688 | relative viability ([10]; first compound 0.08 µM): 1.02 | relative viability ([10]; first compound 0.253 µM): 1.04 | relative viability ([10]; first compound 2.53 µM): 1.01 | relative viability ([10]; first compound 8 µM): 0.952 | relative viability ([3]; first compound 0.08 µM): 1.09 | relative viability ([3]; first compound 0.253 µM): 1.08 | relative viability ([3]; first compound 2.53 µM): 1.02 | relative viability ([3]; first compound 8 µM): 1.05 | relative viability ([11]; first compound 0.08 µM): 0.933 | relative viability ([11]; first compound 0.253 µM): 0.86 | relative viability ([11]; first compound 2.53 µM): 0.874 | relative viability ([11]; first compound 8 µM): 0.802 | relative viability ([12]; first compound 0.08 µM): 0.903 | relative viability ([12]; first compound 0.253 µM): 0.894 | relative viability ([12]; first compound 2.53 µM): 0.882 | relative viability ([12]; first compound 8 µM): 0.537 | relative viability ([13]; first compound 0.08 µM): 0.947 | relative viability ([13]; first compound 0.253 µM): 0.88 | relative viability ([13]; first compound 2.53 µM): 0.875 | relative viability ([13]; first compound 8 µM): 0.946 | relative viability ([14]; first compound 0.08 µM): 1.07 | relative viability ([14]; first compound 0.253 µM): 1.05 | relative viability ([14]; first compound 2.53 µM): 1.01 | relative viability ([14]; first compound 8 µM): 0.573 | relative viability ([15]; first compound 0.08 µM): 0.867 | relative viability ([15]; first compound 0.253 µM): 0.487 | relative viability ([15]; first compound 2.53 µM): 0.64 | relative viability ([15]; first compound 8 µM): 0.253

A549
relative viability ([1]; 0.08 µM): 1.07 | relative viability ([1]; 0.253 µM): 0.921 | relative viability ([1]; 8 µM): 0.523 | relative viability ([8]; first compound 0.08 µM): 0.803 | relative viability ([8]; first compound 0.253 µM): 0.664 | relative viability ([8]; first compound 2.53 µM): 0.735 | relative viability ([8]; first compound 8 µM): 0.453 | relative viability ([2]; first compound 0.08 µM): 0.213 | relative viability ([2]; first compound 0.253 µM): 0.158 | relative viability ([2]; first compound 2.53 µM): 0.193 | relative viability ([2]; first compound 8 µM): 0.0523 | relative viability ([3]; first compound 0.08 µM): 0.904 | relative viability ([3]; first compound 0.253 µM): 0.893 | relative viability ([3]; first compound 2.53 µM): 0.896 | relative viability ([3]; first compound 8 µM): 0.584 | relative viability ([16]; first compound 0.08 µM): 0.233 | relative viability ([16]; first compound 0.253 µM): 0.34 | relative viability ([16]; first compound 2.53 µM): 0.218 | relative viability ([16]; first compound 8 µM): 0.245 | relative viability ([11]; first compound 0.08 µM): 1.02 | relative viability ([11]; first compound 2.53 µM): 0.962 | relative viability ([11]; first compound 8 µM): 0.208 | relative viability ([12]; first compound 0.08 µM): 0.496 | relative viability ([12]; first compound 0.253 µM): 0.289 | relative viability ([12]; first compound 2.53 µM): 0.302 | relative viability ([12]; first compound 8 µM): 0.208 | relative viability ([13]; first compound 0.253 µM): 0.622 | relative viability ([13]; first compound 2.53 µM): 0.512 | relative viability ([13]; first compound 8 µM): 0.341 | relative viability ([15]; first compound 0.08 µM): 0.631 | relative viability ([15]; first compound 0.253 µM): 0.5 | relative viability ([15]; first compound 2.53 µM): 0.412 | relative viability ([15]; first compound 8 µM): 0.116
